# Earlier results, collected in US20030099725A1, “Herbal compositions useful as chemopreventive and therapeutic agents and methods of manufacturing same” (priority 2001, published 2003).
# Tested on: women at high risk of breast cancer
smiles,measurement,value
CC/C(=C(\c1ccccc1)c1ccc(OCCN(C)C)cc1)c1ccccc1 [Tamoxifen],decrease in invasive cancer versus placebo,49%
same,decrease in non-invasive breast cancer versus placebo,50%
